≈ marks a conversion by molar mass, not a printed value. Read-outs that look alike come from different tables or passages of the source.
Experiments:
Type in all cases: cell-based, P. aeruginosa
PA-042, blaIMP/NDM = test: MIC / checkerboard with ATM; settings: for MIC: Pseudomonas aeruginosa, read-out: MIC of ATM with 5, PA-042
PA-044, blaNDM = test: MIC / checkerboard with ATM; settings: for MIC: Pseudomonas aeruginosa, read-out: MIC of ATM with 5, PA-044
All CPPA (n = 26) = test: MIC distribution over clinical isolates; settings: for inhibition at 1 µg/mL / inhibition at 2 µg/mL / inhibition at 4 µg/mL / inhibition at 8 µg/mL / inhibition at 16 µg/mL / inhibition at 32 µg/mL / inhibition at 64 µg/mL / MIC50 / MIC90: Pseudomonas aeruginosa; for inhibition at 1 µg/mL: read-out: Cumulative % inhibition by ATM, 5 at 1 mg/L; for inhibition at 2 µg/mL: read-out: Cumulative % inhibition by ATM, 5 at 2 mg/L; for inhibition at 4 µg/mL: read-out: Cumulative % inhibition by ATM, 5 at 4 mg/L; for inhibition at 8 µg/mL: read-out: Cumulative % inhibition by ATM, 5 at 8 mg/L; for inhibition at 16 µg/mL: read-out: Cumulative % inhibition by ATM, 5 at 16 mg/L; for inhibition at 32 µg/mL: read-out: Cumulative % inhibition by ATM, 5 at 32 mg/L; for inhibition at 64 µg/mL: read-out: Cumulative % inhibition by ATM, 5 at 64 mg/L
PA-002, blaIMP = test: MIC / checkerboard with ATM; settings: for MIC: Pseudomonas aeruginosa, read-out: MIC of ATM with 5, PA-002

## CC(C)(C)CCOc1c(-c2ccc(F)c(F)c2)oc2cc(OCC(=O)O)cc(O)c2c1=O [Compound 5, 2-((2-(3,4-Difluorophenyl)-3-(3,3-dimethylbutoxy)-5-hydroxy-4-oxo-4H-chromen-7-yl)oxy)acetic Acid]
PA-042, blaIMP/NDM; PA-042, lowest-FICI combination
  FD (fold decrease in MIC of ATM with 5): 2
PA-042, blaIMP/NDM; 5 at 1 mg/L
  MIC: 2 µg/mL
PA-042, blaIMP/NDM; 5 at 2 mg/L
  MIC: 2 µg/mL
PA-042, blaIMP/NDM; 5 at 4 mg/L
  MIC: 1 µg/mL
PA-042, blaIMP/NDM; 5 at 8 mg/L
  MIC: 1 µg/mL
PA-042, blaIMP/NDM; 5 at 16 mg/L
  MIC: 1 µg/mL
PA-042, blaIMP/NDM; 5 at 32 mg/L
  MIC: 1 µg/mL
PA-042, blaIMP/NDM; 5 at 64 mg/L
  MIC: 1 µg/mL
PA-044, blaNDM; PA-044
  Activity (FICI class): S (S (Synergy, FICI ≤ 0.5))
  Concentrations of ATM and 5 at lowest FICI (ATM/5): 4/8
  Lowest FICI (ATM/5): 0.27
  Minimum concentration of 5 to make sensitive to ATM: 4 mg/L
PA-044, blaNDM; PA-044, ATM/5
  Susceptibility to ATM: S (S (sensitive, MIC ≤ 8 mg/L))
PA-044, blaNDM; PA-044, lowest-FICI combination
  FD (fold decrease in MIC of ATM with 5): 4
PA-044, blaNDM; 5 at 1 mg/L
  MIC: 16 µg/mL
PA-044, blaNDM; 5 at 2 mg/L
  MIC: 16 µg/mL
PA-044, blaNDM; 5 at 4 mg/L
  MIC: 8 µg/mL
PA-044, blaNDM; 5 at 8 mg/L
  MIC: 4 µg/mL
PA-044, blaNDM; 5 at 16 mg/L
  MIC: 4 µg/mL
PA-044, blaNDM; 5 at 32 mg/L
  MIC: 4 µg/mL
PA-044, blaNDM; 5 at 64 mg/L
  MIC: 4 µg/mL
All CPPA (n = 26)
  Clinical strains sensitized to ATM (MIC ≤ 8 mg/L) by combination with 5: 25 out of 26
All CPPA (n = 26); 22 out of 26 isolates
  CPPA isolates in which ATM/5 combination showed synergistic effects: 85%
All CPPA (n = 26); ATM 0.5 mg/L
  inhibition at 1 µg/mL: 0%
  inhibition at 2 µg/mL: 4%
  inhibition at 4 µg/mL: 4%
  inhibition at 8 µg/mL: 4%
  inhibition at 16 µg/mL: 4%
  inhibition at 32 µg/mL: 4%
  inhibition at 64 µg/mL: 4%
All CPPA (n = 26); ATM 1 mg/L
  inhibition at 1 µg/mL: 4%
  inhibition at 2 µg/mL: 4%
  inhibition at 4 µg/mL: 8%
  inhibition at 8 µg/mL: 19%
  inhibition at 16 µg/mL: 27%
  inhibition at 32 µg/mL: 35%
  inhibition at 64 µg/mL: 38%
All CPPA (n = 26); ATM 2 mg/L
  inhibition at 1 µg/mL: 19%
  inhibition at 2 µg/mL: 23%
  inhibition at 4 µg/mL: 31%
  inhibition at 8 µg/mL: 38%
  inhibition at 16 µg/mL: 50%
  inhibition at 32 µg/mL: 54%
  inhibition at 64 µg/mL: 58%
All CPPA (n = 26); ATM 4 mg/L
  inhibition at 1 µg/mL: 35%
  inhibition at 2 µg/mL: 38%
  inhibition at 4 µg/mL: 46%
  inhibition at 8 µg/mL: 69%
  inhibition at 16 µg/mL: 81%
  inhibition at 32 µg/mL: 88%
  inhibition at 64 µg/mL: 92%
All CPPA (n = 26); ATM 8 mg/L
  inhibition at 1 µg/mL: 46%
  inhibition at 2 µg/mL: 46%
  inhibition at 4 µg/mL: 81%
  inhibition at 8 µg/mL: 88%
  inhibition at 16 µg/mL: 96%
  inhibition at 32 µg/mL: 96%
  inhibition at 64 µg/mL: 96%
All CPPA (n = 26); ATM 16 mg/L
  inhibition at 1 µg/mL: 81%
  inhibition at 2 µg/mL: 92%
  inhibition at 4 µg/mL: 100%
  inhibition at 8 µg/mL: 100%
  inhibition at 16 µg/mL: 100%
  inhibition at 32 µg/mL: 100%
  inhibition at 64 µg/mL: 100%
All CPPA (n = 26); ATM 32 mg/L
  inhibition at 1 µg/mL: 100%
  inhibition at 2 µg/mL: 100%
  inhibition at 4 µg/mL: 100%
  inhibition at 8 µg/mL: 100%
  inhibition at 16 µg/mL: 100%
  inhibition at 32 µg/mL: 100%
  inhibition at 64 µg/mL: 100%
All CPPA (n = 26); ATM 64 mg/L
  inhibition at 1 µg/mL: 100%
  inhibition at 2 µg/mL: 100%
  inhibition at 4 µg/mL: 100%
  inhibition at 8 µg/mL: 100%
  inhibition at 16 µg/mL: 100%
  inhibition at 32 µg/mL: 100%
  inhibition at 64 µg/mL: 100%
All CPPA (n = 26); read-out: MIC50 of ATM, 5 at 1 mg/L
  MIC50: 16 µg/mL (≈ 35.7 µM)
All CPPA (n = 26); read-out: MIC50 of ATM, 5 at 2 mg/L
  MIC50: 16 µg/mL (≈ 35.7 µM)
All CPPA (n = 26); read-out: MIC50 of ATM, 5 at 4 mg/L
  MIC50: 8 µg/mL (≈ 17.8 µM)
All CPPA (n = 26); read-out: MIC50 of ATM, 5 at 8 mg/L
  MIC50: 4 µg/mL (≈ 8.92 µM)
All CPPA (n = 26); read-out: MIC50 of ATM, 5 at 16 mg/L
  MIC50: 4 µg/mL (≈ 8.92 µM)
All CPPA (n = 26); read-out: MIC50 of ATM, 5 at 32 mg/L
  MIC50: 2 µg/mL (≈ 4.46 µM)
All CPPA (n = 26); read-out: MIC50 of ATM, 5 at 64 mg/L
  MIC50: 2 µg/mL (≈ 4.46 µM)
All CPPA (n = 26); read-out: MIC90 of ATM, 5 at 1 mg/L
  MIC90: 32 µg/mL (≈ 71.4 µM)
All CPPA (n = 26); read-out: MIC90 of ATM, 5 at 2 mg/L
  MIC90: 32 µg/mL (≈ 71.4 µM)
All CPPA (n = 26); read-out: MIC90 of ATM, 5 at 4 mg/L
  MIC90: 16 µg/mL (≈ 35.7 µM)
All CPPA (n = 26); read-out: MIC90 of ATM, 5 at 8 mg/L
  MIC90: 16 µg/mL (≈ 35.7 µM)
All CPPA (n = 26); read-out: MIC90 of ATM, 5 at 16 mg/L
  MIC90: 8 µg/mL (≈ 17.8 µM)
All CPPA (n = 26); read-out: MIC90 of ATM, 5 at 32 mg/L
  MIC90: 8 µg/mL (≈ 17.8 µM)
All CPPA (n = 26); read-out: MIC90 of ATM, 5 at 64 mg/L
  MIC90: 8 µg/mL (≈ 17.8 µM)
PA-002, blaIMP; PA-002
  Activity (FICI class): S (S (Synergy, FICI ≤ 0.5))
  Concentrations of ATM and 5 at lowest FICI (ATM/5): 8/4
  Lowest FICI (ATM/5): 0.26
  Minimum concentration of 5 to make sensitive to ATM: 4 mg/L
PA-002, blaIMP; PA-002, ATM/5
  Susceptibility to ATM: S (S (sensitive, MIC ≤ 8 mg/L))
PA-002, blaIMP; PA-002, lowest-FICI combination
  FD (fold decrease in MIC of ATM with 5): 4
PA-002, blaIMP; 5 at 1 mg/L
  MIC: 16 µg/mL
PA-002, blaIMP; 5 at 2 mg/L
  MIC: 16 µg/mL
PA-002, blaIMP; 5 at 4 mg/L
  MIC: 8 µg/mL
PA-002, blaIMP; 5 at 8 mg/L
  MIC: 8 µg/mL
PA-002, blaIMP; 5 at 16 mg/L
  MIC: 4 µg/mL
PA-002, blaIMP; 5 at 32 mg/L
  MIC: 4 µg/mL
PA-002, blaIMP; 5 at 64 mg/L
  MIC: 2 µg/mL
